Measured values as given in US20120328660A1, “IMMUNOGENIC COMPOSITIONS USEFUL IN PROVOKING AN INTEGRATED RESPONSE TO TUMOR ANTIGENS” (priority 2011, published 2012).

What was measured:
CD4+ T cell lines = assay: Cytokine production of CD4+ T cell lines by sandwich ELISA; assay type: in vivo, human
Description: Equal amounts of CD4^+ T cell lines created supra, and autologous EBV-B cells (5×10^4) were co-cultured in 250 μl RPMI and 10% FCS. After the EBV-B cells had been pulsed overnight or not with the assay OLPs and cultured for 24 hours, supernatant was harvested, and stored at −20° C. until sandwich ELISAs were carried out using standard methods. The cytokines which were assayed included IFN-γ, GM-CSF, IL-4, IL-9, IL-10, IL-13, IL-17, and TGF-β. These are all known to be produced by different CD4^+ subsets.

[1] = system: NY-ESO-1 region consisting of amino acids 100-129; assay: ELISA with assay OLPs as coating antigens to determine epitopes recognized by induced IgG; assay type: in vivo, human; conditions: accelerating the response, increasing titer, broadening antibody repertoire
Description: In these experiments, the epitopes recognized by the NY-ESO-1 specific IgGs that were induced by immunization were determined. ELISAs were carried out, using standard methods, with the assay OLPs supra being used as coating antigens. Antibody titers of subjects were tested at week 16, with the exception of one sample, which was tested at week 13. IgG responses were most frequent and strongest against the NY-ESO-1 region consisting of amino acids 121-150. The NY-ESO-1 region consisting of amino acids 80-109 was also recognized frequently, and in the case of the NY-ESO-1 region consisting of amino acids 100-129, all patients who received the combination of the peptides, Montanide, and polyICLC had relevant antibodies, as did 4/9 of the patients who received the peptides in Montanide only. There was a much lower response to the NY-ESO-1 region consisting of amino acids 142-173. In all cases, polyICLC enhanced the humoral, immune response, not only by accelerating the response and increasing titer, but also by broadening antibody repertoire.

## polyICLC
CD4+ T cell lines; in vivo
  IL-9 production by T cells following immunization: inhibited completely
CD4+ T cell lines; week 13 and 16
  level of IL-4: significantly suppressed
  level of IL-9: significantly suppressed
  level of IL-13: significantly suppressed
CD4+ T cell lines; when polyICLC was used
  IL-9/IL-4 ratio: significantly lower
[1]
  effect on humoral immune response: enhanced
